The source of these data is US20170319611A1, “METHODS AND COMPOSITIONS COMPRISING AKT INHIBITORS AND/OR PHOSPHOLIPASE D INHIBITORS” (Vanderbilt University, priority 2012, published 2017).

One experiment deals with AMPK. The experiment can be described thus: AMPK activation immunoblot, U87MG cells. Type of experiment: cell-based, human. How it is done:
Another well-known regulator of autophagy is the adenosine monophosphate-activated protein kinase (AMPK). Changes in intracellular energy balance or metabolic stress are known to activate AMPK (Hardie, D. G. (2007) Nat. Rev. Mol. Cell Bio. 8, 774-785). AMPK serves as a metabolic checkpoint, acting to restore ATP levels through regulation of metabolic enzymes and inhibition of pro-growth anabolic pathways (Hardie, D. G. (2007) Nat. Rev. Mol. Cell Bio. 8, 774-785). […] U87MG cells were treated for 24 hours with […] before lysis and immunoblotting. AMPK activation was measured by assessing phosphorylation at threonine 172 and also by measuring activation of acetyl coenzyme A carboxylase (ACC) at serine 79.
Another AMPK substrate and component of the autophagasome initiation complex is Unc-51-like kinase 1 (ULK1). Several studies (Egan, D. F. et al., (2011) Science 331, 456-461; Kim, J. et al., (2011) Nature Cell Bio. 13, 132-141) have recently identified multiple AMPK sites on ULK1 that function to enhance initiation of autophagy. […] To determine whether the induction of autophagy through AMPK activation requires Akt, Aktl was silenced and then evaluated for effects of PLD inhibition on AMPK and ULK1 phosphorylation. Aktl was chosen to silence since Aktl phosphorylation was decreased following PLD inhibition in U87MG cells. […] U87MG cells were transfected with Aktl siRNA for 72 hours prior to cell lysis. Cells were treated with […] JWJ 24 hours prior to cell lysis.
Background: Immunoblotting shows a protein as a band on a membrane.

The next experiment relates to Akt. The experiment in a line: Akt membrane recruitment (membrane isolation), U87MG cells. The format is cell-based, human. Conditions: overnight 5 μM JWJ. How it is done:
U87MG cells were seeded in 150 mm tissue culture plates at 2.6×10^6 cells/plate (4 plates per condition) and allowed to adhere overnight. The following day, cells were washed and media replaced with DMEM+indicated inhibitor or vehicle and cells were treated for up to 12 h. Cells were washed twice in 1×PBS then scraped in homogenization buffer (20 mM HEPES pH 7.4, 1 mM EDTA, 250 mM sucrose). Cells were pelleted by centrifugation at 1,000×g for 4 minutes at 4° C. […] Lysate was collected dropwise then centrifuged at 2,000×g for 10 min to pellet unbroken cells, nuclei, and heavy debris. The supernatant was subsequently centrifuged at 100,000×g for 60 min. The supernatant was saved as the cytosolic fraction and the 100,000×g pellet was washed once by resuspension in lysis buffer then centrifuged again under the same conditions.
2.5%, 10%, 17.5%, 25%, and 30% iodixanol solutions were prepared by mixing the appropriate ratios of 50% iodixanol with homogenization buffer. […]
In order to understand the mechanism by which PtdOH regulates Akt activation, it was first determined whether PtdOH and PIP3 share a binding site on Akt. […] Akt binding to PtdOH and PIP3 was then assessed using a protein-lipid overlay assay. […] Bound Akt was determined using an Akt specific antibody. […] GST-Akt PH domain fusion proteins were purified from E. coli and lipid binding was again assessed using a protein-lipid overlay.

In the next experiment the target is T1, PLD2-Akt interaction (Homo sapiens, UniProt P31749).
T1 construct: 6xHis (N); made in house; host or cells: Sf21 insect cells (baculovirus)
T1 sequence (P31749 whole entry): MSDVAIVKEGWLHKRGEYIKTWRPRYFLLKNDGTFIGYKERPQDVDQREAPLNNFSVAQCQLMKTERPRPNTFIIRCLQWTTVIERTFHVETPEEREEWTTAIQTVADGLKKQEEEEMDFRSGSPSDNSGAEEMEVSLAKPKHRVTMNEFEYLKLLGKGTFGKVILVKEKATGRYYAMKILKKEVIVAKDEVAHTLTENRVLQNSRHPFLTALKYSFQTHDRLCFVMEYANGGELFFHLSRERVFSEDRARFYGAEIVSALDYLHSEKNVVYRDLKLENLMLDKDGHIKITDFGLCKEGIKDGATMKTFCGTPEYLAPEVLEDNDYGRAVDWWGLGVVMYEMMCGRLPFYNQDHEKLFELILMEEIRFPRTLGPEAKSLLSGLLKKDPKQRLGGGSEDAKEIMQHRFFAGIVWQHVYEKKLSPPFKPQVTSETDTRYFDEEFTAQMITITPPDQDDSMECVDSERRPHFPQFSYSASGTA
The experiment in a line: In vitro protein-protein interaction assay, purified PLD2 and Akt. Type of experiment: binding. The note with it: purified proteins, 10 μM inhibitor in reaction mixture. As to the method: 25 nM PLD2-PtS or PtS tag were incubated with 50 nM 6×His-Aktl for 2 h in 50 mM Tris pH 8.0, 0.01% Nonidet P-40, 150 mM NaCl, 0.5 mM EDTA, and 50 mg/mL avidin. Where indicated, 10 μM inhibitor was included in the reaction mixture. PtS-tagged proteins were captured by incubation with strep-tactin resin for 2 h.
Although proteins may co-IP from cell lysate, determining whether proteins form a direct interaction requires binding experiments with purified proteins. As described herein, recombinant Akt and PLD2 was then expressed and purified from Sf21 insect cells (FIG. 8C). […] Numbers indicate molecular weights in kilodaltons. […] Since PLD2 and Akt appear to interact directly, the PLD inhibitors were evaluated to determine whether they disrupted the protein-protein interaction as a potential mechanism by which PLD2 regulates activation of Akt in cells. As described herein, purified PLD2 and Akt were incubated in the presence of EVJ, JWJ, or the allosteric pan-Akt inhibitor, MK2206 (Hirai, H. et al., (2010) Mol. Cancer Ther. 9, 1956-1967) and proteins captured using affinity resin. […] Referring to FIG. 9B, the same procedure was used as in 9A, except 10 μM EVJ, JWJ, or Akt inhibitor MK2206 was included in the reaction mixture.

[1] abbreviates: 24 hours, 10 mM EVJ or 5 mM JWJ.

Regarding `O=C(NCCN1CCC2(CC1)C(=O)NCN2c1cccc(F)c1)c1ccc2ccccc2c1` [No. 1, N-(2-(1-(3-fluorophenyl)-4-oxo-1,3,8-triazaspiro[4.5]decan-8-yl)ethyl)-2-naphthamide], in the experiment on AMPK (setting [1]), the “AMPK activation (phosphorylation of threonine 172)” value was “observed to increase” and the “phosphorylation of acetyl-coA carboxylase (serine 79)” value was “increased phosphorylation of acetyl-coA carboxylase”. Further, in the experiment on AMPK (Aktl siRNA 72 hours, 5 mM JWJ 24 hours), the “AMPK or ULK1 phosphorylation when Aktl is silenced” value is reported as “does not appear to increase AMPK or ULK1 phosphorylation more than DMSO control”. Further, in the experiment on Akt, the “membrane recruitment of Akt” value is “diminished”. In addition, the PLD2-Akt interaction result at PLD2-Akt interaction was “detected even in the presence of PLD inhibitors”.
